Source: US11859212B2, “Method for producing intestinal organoid derived from pluripotent stem cells” (PUBLIC UNIVERSITY CORPORATION NAGOYA CITY UNIVERSITY, priority 2017, dated 2024)
Like-named read-outs stand apart in the source and are kept apart here.

Experiments:
ABCG2/BCRP = target: T1, ABCG2/BCRP (Homo sapiens, UniProt Q9UNQ0); test: Hoechst 33342 transport experiment, human intestinal organoids obtained with polysaccharide polymers; format: in vitro ADME
T1 sequence (Q9UNQ0 1-655): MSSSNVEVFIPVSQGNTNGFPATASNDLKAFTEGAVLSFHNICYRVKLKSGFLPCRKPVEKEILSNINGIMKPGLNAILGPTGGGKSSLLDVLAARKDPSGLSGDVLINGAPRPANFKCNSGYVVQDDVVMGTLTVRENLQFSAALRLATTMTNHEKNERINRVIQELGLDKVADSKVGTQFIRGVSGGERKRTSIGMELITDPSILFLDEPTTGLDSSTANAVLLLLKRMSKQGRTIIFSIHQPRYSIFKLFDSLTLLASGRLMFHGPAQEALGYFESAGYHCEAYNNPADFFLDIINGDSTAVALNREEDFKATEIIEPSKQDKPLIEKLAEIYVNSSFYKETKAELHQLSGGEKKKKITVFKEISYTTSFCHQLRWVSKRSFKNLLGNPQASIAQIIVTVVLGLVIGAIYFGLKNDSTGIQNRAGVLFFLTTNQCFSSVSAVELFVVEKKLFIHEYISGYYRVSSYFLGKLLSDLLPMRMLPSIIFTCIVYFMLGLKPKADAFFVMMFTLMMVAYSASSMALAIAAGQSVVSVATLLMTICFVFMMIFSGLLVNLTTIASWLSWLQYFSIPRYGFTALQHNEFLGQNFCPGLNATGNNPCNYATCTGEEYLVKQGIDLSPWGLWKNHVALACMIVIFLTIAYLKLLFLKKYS

CYP3A8 [1] = test system: CYP3A8
CYP3A4 [2] = test: CYP3A4 induction ability of human intestinal organoids obtained with polysaccharide polymers (mRNA and midazolam metabolic activity); conditions: VD3 1 μmol/L, 72 hours
CYP3A4 [3] = test system: CYP3A4
CYP3A4 [4] = test: Drug metabolism experiment with midazolam, CYP3A4 metabolic activity of human intestinal organoids obtained with polysaccharide polymers; conditions: 5 μmol/L midazolam
CYP3A8 [5] = test: Drug metabolism experiment with midazolam, CYP3A8 metabolic activity of cynomolgus monkey intestinal organoids; conditions: 5 μmol/L midazolam, 37° C., 24 hours
ABCB1/MDR1 [6] = target: T2, ABCB1/MDR1 (Homo sapiens, UniProt P08183); test: Rhodamine 123 transport experiment, human intestinal organoids obtained with polysaccharide polymers; format: in vitro ADME
ABCB1/MDR1 [7] = target: T2, ABCB1/MDR1; test: Rhodamine 123 uptake experiment, function of ABCB1/MDR1 in human intestinal organoids (fluorescence observation); format: in vitro ADME; conditions: rhodamine 123 10 μmol/L, 37° C., 1 hour, absence of verapamil

T2 sequence (P08183 whole entry): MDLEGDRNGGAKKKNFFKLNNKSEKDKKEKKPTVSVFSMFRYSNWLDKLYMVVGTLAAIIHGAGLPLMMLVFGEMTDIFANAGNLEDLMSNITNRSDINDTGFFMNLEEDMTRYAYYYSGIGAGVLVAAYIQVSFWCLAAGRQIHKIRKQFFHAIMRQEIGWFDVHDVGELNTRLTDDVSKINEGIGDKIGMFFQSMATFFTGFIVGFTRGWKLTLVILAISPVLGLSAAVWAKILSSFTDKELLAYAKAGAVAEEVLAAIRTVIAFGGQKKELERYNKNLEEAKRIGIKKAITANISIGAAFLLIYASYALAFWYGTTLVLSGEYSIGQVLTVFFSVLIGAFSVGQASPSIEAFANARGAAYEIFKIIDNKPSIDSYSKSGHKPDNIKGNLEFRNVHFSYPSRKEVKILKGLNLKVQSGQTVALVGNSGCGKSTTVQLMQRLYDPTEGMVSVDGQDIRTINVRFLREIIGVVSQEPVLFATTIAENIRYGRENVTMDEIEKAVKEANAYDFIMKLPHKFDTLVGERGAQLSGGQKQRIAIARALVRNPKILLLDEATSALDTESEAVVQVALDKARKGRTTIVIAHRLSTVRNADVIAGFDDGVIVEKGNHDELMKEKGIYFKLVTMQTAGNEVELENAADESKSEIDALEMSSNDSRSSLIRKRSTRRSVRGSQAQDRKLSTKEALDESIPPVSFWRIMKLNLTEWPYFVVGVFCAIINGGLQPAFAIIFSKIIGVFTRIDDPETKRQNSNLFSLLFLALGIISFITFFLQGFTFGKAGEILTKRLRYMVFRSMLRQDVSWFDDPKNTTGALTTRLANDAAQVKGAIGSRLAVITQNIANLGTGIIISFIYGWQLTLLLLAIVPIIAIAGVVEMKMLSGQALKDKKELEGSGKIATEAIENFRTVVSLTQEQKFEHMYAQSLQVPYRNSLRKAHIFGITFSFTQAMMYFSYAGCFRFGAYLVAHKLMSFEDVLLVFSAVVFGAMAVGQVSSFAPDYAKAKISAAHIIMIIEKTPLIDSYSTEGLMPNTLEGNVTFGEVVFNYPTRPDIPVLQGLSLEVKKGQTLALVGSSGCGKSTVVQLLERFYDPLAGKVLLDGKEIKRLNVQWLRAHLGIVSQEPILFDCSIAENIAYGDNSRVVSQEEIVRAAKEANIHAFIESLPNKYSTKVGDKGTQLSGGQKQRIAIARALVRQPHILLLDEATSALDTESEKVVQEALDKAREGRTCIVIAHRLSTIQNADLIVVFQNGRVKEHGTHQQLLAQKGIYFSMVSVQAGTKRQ

**Q.** `CCOc1ccc(-c2nc3ccc(-c4nc5ccc(N6CCN(C)CC6)cc5[nH]4)cc3[nH]2)cc1` [Hoechst 33342] was tested. Which “excretion of Hoechst 33342 into the intestinal organoids” value (ABCG2/BCRP) did it give?
**A.** The value was “observed”.

**Q.** Which results are given for `C=C1/C(=C\C=C2/CCC[C@]3(C)[C@@H]([C@H](C)CCCC(C)(C)O)CC[C@@H]23)C[C@@H](O)C[C@@H]1O` [VD3, 1α, 25-dihydroxyvitamin D3]?
**A.** induction of mRNA expression of CYP3A8 as compared with the control group (CYP3A8 [1]): no induction; midazolam metabolic activity in the inducer-added group (CYP3A4 [2]; 5 μmol/L midazolam): significantly increased; induction of mRNA expression of CYP3A4 as compared with the control group (CYP3A4 [2]; organoids obtained with polysaccharide polymers): significantly induced; induction of mRNA expression of CYP3A4 as compared with the control group (CYP3A4 [3]): approximately 4.5 times

**Q.** `CC(=O)N1CCN(c2ccc(OCC3COC(Cn4ccnc4)(c4ccc(Cl)cc4Cl)O3)cc2)CC1` (stereo not shown) [ketoconazole] was tested. Which “effect of inhibitor on midazolam metabolic activity” value (CYP3A4 [4]) did it give?
**A.** The value was “significantly inhibited”.

**Q.** What does the source list for `Cc1ncc2n1-c1ccc(Cl)cc1C(c1ccccc1F)=NC2` [midazolam]?
**A.** midazolam metabolic activity (CYP3A4 [4]; 37° C., 24 hours): observed; midazolam metabolic activity (CYP3A8 [5]): observed

**Q.** For rhodamine 123, which “excretion of rhodamine 123 into the intestinal organoids” value (ABCB1/MDR1 [6]) is on record?
**A.** Its value is “observed”.

**Q.** What about the “excretion of rhodamine 123 into the intestinal organoids” value (ABCB1/MDR1 [7]) of the same molecule?
**A.** Its value is “observed”.
